Assay results from publication PMC5805504 (Oncotarget, 2017).
Read-outs that look alike come from different tables or passages of the source.

Columns and labels:
TGFβRII = TGFβRII (Homo sapiens, UniProt P37173); assay: Confirmatory TGFβRII binding assay
pSMAD in NIH3T3 cells = assay: pSMAD inhibition in NIH3T3 cells; format: cell-based; settings: Mus musculus, read-out: IC50, inhibition of pSMAD, data not shown
[1] = tested on: pSMAD in Calu6 and EMT6-LM2 tumors; assay: PK/PD profile from Calu6 and EMT6-LM2 in vivo target inhibition studies (statements not split by model); design: species or system mice
[2] = tested on: murine NK and CD8+ T cells; assay: TGFβ suppression of murine NK and CD8+ T cell cytokine secretion; format: cell-based, BALB/c mice; settings: TGFβ1 10 ng/ml, 0.1 μM to 10 μM, ELISA
Protocol: Mouse NK cells and CD8^+ T cells were purified from female BALB/C mouse splenocytes by magnetic antibody sorting (Miltenyi Biotec) following the manufacturer's instructions. After isolation, the cells were re-suspended separately in complete media (RPMI1640, 5% FBS, 10 mM HEPES, 1×NEAA, 1×L-Glu, sodium pyruvate, 1×Penn/Strep, 0.055 mM βME, 50 U/ml IL2) and plated in flat 96-well plates at 37°C for 5-7 days at a density of 5 × 10^4/well, in triplicate, and stimulated with Treg Suppression Inspector beads (Miltenyi Biotec, Cat# 130-093-627). Cells were cultured with or without TGFβ1 at 10 ng/ml. […] Cytokine release in supernatants was measured by ELISA (R&D, mouse Granzyme B: DY1865; mouse INFγ:3321-1H-6). One-way ANOVA with Dunnett's test was used to compare the TGFβ+Gal treatments to the TGFβ+DMSO treatment.

[3] = tested on: human NK and CD8+ T cells; assay: TGFβ1 suppression of human NK and CD8+ T cell cytokine secretion; format: cell-based; settings: TGFβ1 10 ng/ml, ELISA
Protocol: Blood from healthy donors were obtained from the New York Blood Center. After isolation of PBMCs via high density gradient centrifugation with Ficoll-Paque, NK cells and CD8^+ T cells were purified from PBMCs by magnetic antibody sorting (Miltenyi Biotec) following the manufacturer's instructions. Purified CD8^+ T cells and NK cells were re-suspended separately in complete media (RPMI1640, 5% FBS, 10mM HEPES, 1×NEAA, 1×L-glu, sodium pyruvate, 1×penn/strep, 0.055 mM βME, 50 U/ml IL-2) and plated in 96-well plates at 37°C for 2 days at a density of 5 × 10^4/well, in triplicates. CD8^+ T cells were stimulated with human T cell activation/expansion beads (Miltenyi Biotec; 130-091-441), while NK cells were stimulated with the same beads plus 10 U/ml IL-2. Cells were cultured with or without TGFβ1 at 10 ng/ml. […] Cytokine release in supernatants was measured by ELISA (R&D; human Granzyme B: DY2906; human INFγ: DY285-05). One-way ANOVA with Dunnett's test was used to compare the TGFβ+Gal treatments to the TGFβ+DMSO treatment.

[4] = tested on: Calu6 human xenograft lung cancer model; assay: Calu6 in vivo xenograft cancer model; design: species or system athymic nude mice
Protocol: Female athymic nude mice from Charles River weighing 22 to 26 grams were implanted subcutaneously in the flank with 1×10^7 cells in a 1:1 (v/v) mixture in matrigel. […] Tumor volumes and body weight were determined by electronic caliper every 2 to 3 days. Repeat measures analysis was utilized with log transformed data and the auto-regression (AR) method to determine the overall p-value for galunisertib growth curves relative to the vehicle control in both tumor models. […]

[5] = tested on: pSMAD in 13762 rat mammary carcinoma tumor; assay: 13762 rat tumor model, pSMAD in tumor tissue; format: in vivo, Fischer 344 rats; settings: Table 4, read-out: IC50 of pSMAD (%CV)
Protocol: (§1) Fischer 344 rats from Taconic Farms weighing 150 to 160 grams were acclimatized for 1 week prior to study initiation and had ad libitum access to food. Rats were shaved in the implant area then given a subcutaneous flank injection of 5 × 10^6 13762 rat mammary carcinoma cells in a 1:1 (v/v) mixture with Matrigel in media. […] Tumor, PBMCs, and plasma were collected at 0.5, 1, 1.5, 2, 4, 8, 16, and 24 hours for further analysis.
(§2) For correlation of pSMAD modulation in 13762 rat mammary carcinoma tumors and PBMCs, data were normalized using an analysis of co-variance of log pSMAD versus log tSMAD and treatment group. The slope (b) from this analysis was used to normalize the pSMAD values using pSMAD/(tSMAD)^b. Percent inhibition was calculated by the following formula: 100-(y/x)*100 where y = normalized pSMAD value and x = mean normalized pSMAD in the vehicle control. Linear correlation was used to compare tumor and PBMC measurements. In addition, using a cutoff of 50%, a 2 × 2 contingency table analysis was performed using Fisher's exact test.

pSMAD in PBMC = assay: 13762 rat tumor model, ex vivo stimulated PBMC pSMAD; format: in vivo, Fischer 344 rats; settings: Table 4, read-out: IC50 of pSMAD (%CV)
Protocol: as §1
Ex vivo stimulation and assessment of target modulation in PBMCs have been described in detail previously. Briefly, whole blood (2 to 3 mL) was collected by cardiac puncture from Fischer 344 rats and transferred to BD Vacutainer CPT sodium citrate tubes. PBMCs isolated from whole blood were stimulated with TGFβ1 at a final concentration of 100 pM at 37°C for one hour. Cells were washed with cold PBS and lysed in 50-100 μL of lysis buffer, and pSMAD and tSMAD levels were assessed by immunoblot assay as described above.
as §2, with “Linear correlation was used to compare tumor and PBMC measurements. In addition, using a cutoff of 50%, a 2 × 2 contingency table analysis was performed using Fisher's exact test.” left out

[6] = design: method as in earlier work; settings: patients with pancreas cancer; cited from earlier work
in vivo [7] = settings: female, BALB/c, mouse, plasma, po, 25 mg/kg
Protocol: (§3) For in vivo measurement of tumor cell pSMAD activity, tumors were harvested from mice at the indicated time points post-treatment, snap frozen in liquid nitrogen, then pulverized in lysis buffer [EDTA 5 mM, EGTA 5 mM, sodium pyrophosphate 30 mM, sodium chloride 6.7 mM, sodium fluoride 50 mM, and 1% triton in water, pH 7.4 with protease and phosphatase inhibitors (Sigma, p8340, p5726, p0044) and sodium orthovanadate 2.5 mM]. Protein concentration was estimated with DC protein assay kit (BioRad).
(§4) Percent inhibition of normalized pSMAD2 levels was calculated by first determining the ratio of tSMAD to pSMAD values for the vehicle group. […] Percent inhibition for compound treated groups was determined relative to the minimum pSMAD inhibition of the vehicle group using the formula: [(100- (normalized pSMAD in the experimental treatment group/normalized pSMAD in the vehicle treated group)]. IC50 of pSMAD inhibition was calculated for the data using non-linear regression to fit the standard four parameter logistic model using GraphPad Prism 6.
(§5) Female athymic nu/nu mice or immune competent syngenic BALB/c mice (Charles River or Taconic Farms, respectively, 22 to 28 grams) were maintained in microisolator cages, received food and water ad libitum, and were quarantined for 1 week before experimental manipulation. Sub-confluent Calu6 human non-small cell lung cancer (NSCLC) cells were injected subcutaneously in the flank of nude mice (1x 10^7cells/per animal) in 0.2 mL of culture medium mixed with Matrigel (BD Biosciences, 1:1 v/v). EMT6-LM2 murine triple negative breast cancer tumor cells (5 × 10^5 cells/per animal in the absence of matrigel) were implanted on the flank of BALB/c mice. EMT6-LM2 cells were generated from parental EMT6 cells which were passaged twice from spontaneous lung metastases (LM) following subcutaneous growth. When the tumor volume reached ~250 mm^3, mice were randomized and separated into treatment groups.
(§6) Tumors and plasma were collected 2 hours post dosage for analysis of pSMAD and compound levels.
(§7) Tumors and plasma were collected at the indicated time points (0.5, 1, 1.5, 2, 4, 8, and 16 hours) for analysis of pSMAD and compound levels.
(§8) Percent target inhibition was calculated as described above then was modeled as a function of either dose or plasma concentration.

in vivo [8] = settings: female, athymic nu/nu, mouse, plasma, po, 75 mg/kg
Protocol: as §3, §4, §5, §6, §7, §8

[9] = rats; cited from earlier work
U87MG xenograft tumors = assay: U87MG glioblastoma xenograft tumor model; settings: galunisertib 25 mg/kg BID oral; lomustine (CCNU) 30 mg/kg single intraperitoneal dose; alone or combined
Protocol: Five million U87MG glioblastoma cells, obtained from ATCC (Manassas, VA), were injected subcutaneously in the flank of 8- to 9-week old, female, athymic nude mice (Harlan, Indianapolis, IN) in a 1:1 mixture of 1x PBS and matrigel (Becton Dickinson, Bedford, MA). Mice were monitored daily for palpable tumors. […] The tumor volumes were recorded at regular intervals following treatment.

pSMAD in EMT6-LM2 cells = assay: TGFβ1-induced pSMAD inhibition in EMT6-LM2 cells (ELISA)
Protocol: Next, the samples were homogenized for 15 seconds using Bioruptor® UCD-200 by Diagenode at medium power.
Total and pSMAD2/3 levels were assessed independently on two separate ELISA plates. […] To the pSMAD ELISA plate, 100 μL per well of lysate (ranging from 0.04-0.1 mg total protein) was added to the appropriate wells. To the total SMAD ELISA plate, 10% of the total protein that was added to the pSMAD, was added to the appropriate wells (0.004-0.01 mg protein final). A standard curve was also added to both ELISA plates (p- and tSMAD plates) using recombinant HIS-pSMAD2 protein (Eli Lilly and Company). Plates were incubated overnight then washed four times with wash buffer. […] Following one hour of incubation, plates were washed and developed using 3, 3’, 5, 5’-tetramethylbenzidine substrate (TMB; Surmodics/BioFX #TMBW-0100-01) and absorbance (OD) was read at 450 nm on a plate reader.
Percent inhibition of normalized pSMAD2 levels was calculated by first determining the ratio of tSMAD to pSMAD values for the vehicle group. […]

Sequence of TGFβRII (P37173 23-567): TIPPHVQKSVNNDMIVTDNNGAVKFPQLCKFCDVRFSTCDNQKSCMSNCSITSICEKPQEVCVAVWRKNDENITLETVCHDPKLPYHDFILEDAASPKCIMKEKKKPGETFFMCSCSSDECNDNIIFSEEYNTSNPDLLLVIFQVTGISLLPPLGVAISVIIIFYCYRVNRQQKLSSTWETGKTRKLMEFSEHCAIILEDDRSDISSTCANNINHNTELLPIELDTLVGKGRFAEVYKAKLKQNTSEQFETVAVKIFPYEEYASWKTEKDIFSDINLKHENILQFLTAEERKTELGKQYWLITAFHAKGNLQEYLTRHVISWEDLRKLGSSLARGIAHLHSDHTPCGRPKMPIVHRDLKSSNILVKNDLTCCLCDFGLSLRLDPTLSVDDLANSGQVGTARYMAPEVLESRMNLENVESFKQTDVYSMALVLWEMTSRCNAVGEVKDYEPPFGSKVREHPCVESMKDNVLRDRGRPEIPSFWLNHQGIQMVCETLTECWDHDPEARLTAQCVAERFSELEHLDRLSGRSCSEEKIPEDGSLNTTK
Protocol for pSMAD in Calu6 tumors: as §3, §4, §5, §6, §7, §8

With `Cc1cccc(-c2nn3c(c2-c2ccnc4ccc(C(N)=O)cc24)CCC3)n1.O` [galunisertib, 4-[2-(6-methylpyridin-2-yl)-5,6-dihydro-4H-pyrrolo[1,2-b]pyrazol-3-yl]quinoline-6-carboxamide monohydrate] the IC50 (TGFβRII) was 0.43 µM, the IC50 (pSMAD in NIH3T3 cells) was 0.064 µM and the TED90 ([1]; oral, data not shown) was 75 mg/kg. The “target inhibition in vivo over 12 hours” value ([1]; single oral dose with an exposure of […]-5 μM) was at least 20%, the “TGFβ1 suppression of IFNγ and granzyme B secretion” value [2] was “prevented the suppression of IFNγ and granzyme B secretion” and the “TGFβ1 suppression of IFNγ and granzyme B secretion” value [3] was “prevented the suppression of IFNγ and granzyme B secretion”. For the same compound, the tumor growth delay ([4]; 75 mg/kg twice daily oral gavage, 500 mm^3 crossing time, p = 0.034) was 8.3 ± 2.6 days, the body weight ([4]; 75 mg/kg twice daily, data not shown) was “No body weight loss” and the IC50 [5] was 0.719 µM. The IC50 (pSMAD in PBMC) was 1.96 µM, the “pSMAD inhibition at maximum plasma exposure” value (pSMAD in Calu6 tumors; Calu6, at 30 minutes) was ~ 70% and the “TED50, total effective dose to inhibit 50% pSMAD” value (pSMAD in Calu6 tumors; Calu6, single oral dose, tumors 2 hours post dosage) was 15.6 mg/kg. For the same compound, the maximum plasma exposure (pSMAD in Calu6 tumors; Calu6 time course, single oral dose) was “up to 6 μM”, the “clinical outcome versus gemcitabine, phase II” value [6] was “superiority over gemcitabine” and the Tmax (in vivo [7]) was 30 min. For the same compound, the Tmax (in vivo [8]) was 30 min, the “adverse effects at high doses” value [9] was “associated with adverse effects” and the “anti-tumor effect (tumor volume)” value (U87MG xenograft tumors) was “modest anti-tumor effect”. The IC50 (pSMAD in EMT6-LM2 cells; Mus musculus, read-out: IC50, pSMAD activity, EMT6-LM2, TGFβ1 10 ng/ml, ELISA) was 0.894 µM and the IC50 (pSMAD in EMT6-LM2 cells; read-out: IC50, pSMAD activity, EMT6-LM2, TGFβ1 10 ng/ml, ELISA) was 0.89 µM.
